Converted amounts (≈) assume the structure as drawn.
What was measured:
Anas platyrhynchos = settings: chronic/long-term
Apis mellifera = settings: acute, mortality
Bibionidae = settings: chronic/long-term, other
Colinus virginianus = settings: acute, oral, mortality
Folsomia candida = settings: chronic/long-term; mortality
Neomysis kadiakensis = settings: chronic/long-term; duration: 28 days; reproduction
Aphidius rhopalosiphi = assay: LR50; higher = less toxic; settings: not reported; other

SMILES: CO/C=C(/C(=O)OC)c1ccccc1COc1cccc(C(F)(F)F)n1 [Picoxystrobin]
- NOEL (Anas platyrhynchos): 110 mg/kg-day
- LD50 (Apis mellifera; dermal): > 200 µg/piece
- LD50 (Apis mellifera; oral, unspecified): > 200 µg/piece
- NOEC (Bibionidae; duration: 21 days): 0.0084 mg/L
- NOEC (Bibionidae; duration: 28 days): 5 mg/kg
- LD50 (Colinus virginianus; diet): > 1770 mg/kg-day
- LD50 (Colinus virginianus): > 2250 mg/kg
- NOEC (Folsomia candida): 12.5 mg/kg
- NOEC (Neomysis kadiakensis): 0.0036 mg/L
- LC50 (Oncorhynchus mykiss; acute, duration: 96 hours, mortality): 0.05 µg/mL (≈ 0.136 µM)
- NOEC (Oncorhynchus mykiss; chronic/long-term, duration: 28 days, growth): 0.01 mg/L
- LD50 (Rattus norvegicus; acute, mortality): > 5000 mg/kg
- NOAEL (Rattus norvegicus; chronic): 21.8 mg/kg-day
- LC50 (Tagia sp.; acute, mortality): 3.35 mg/kg
- NOEC (Tagia sp.; chronic/long-term, reproduction): 0.315 mg/kg
- LR50 (Aphidius rhopalosiphi): 0.675 g/ha
